A short description of data set [1]: Radical scavenging monitored by EPR spectroscopy, GO•. As to conditions: after 60 min of reaction; C/CMC = 100. Here is the method: (§1) We began with an attempt to determine if the N-oxide surfactants can participate in the radical scavenging process when micelles are well-formed. Thus, the reaction mixtures containing a surfactant at C/CMC = 100, which is a typical concentration found in formulations, and GO• or DPPH• at 2 mM were prepared along with the control samples and monitored over time (solutions of DPPH• and GO• without surfactants).
(§2) The scavenging capacity of the surfactants was judged quantitatively by measuring the percentage of remaining GO• and DPPH• after a fixed reaction time. The relative concentration of GO• and DPPH• was calculated from Equation (1):(1) remaining radical%=It/I0×100% where I0 and It correspond to the EPR signal integral intensity of a radical in the absence and presence of the N-oxide surfactants after a fixed time, respectively.
(§3) The antiradical properties were studied by EPR using a Bruker ELEXYS E500 spectrometer equipped with an NMR gaussmeter and frequency counter. A microwave power of 10 mW, a modulation frequency of 100 kHz, a modulation amplitude of 1 G, a time constant of 82 ms, and a conversion time of 164 ms were adopted. The antiradical properties were evaluated against two model radicals: 2,2-diphenyl-1-picrylhydrazyl (DPPH•) and galvinoxyl (GO•). […]

Data set [2] is described as follows: Radical scavenging monitored by EPR spectroscopy, DPPH•. As to conditions: after 60 min of reaction; C/CMC = 100. As to the method:
as §1, §2, §3
(In general: Loss of DPPH colour is used to gauge radical scavenging.)

A short description of data set [3]: DPPH• scavenging kinetics by UV-vis, pseudo-first-order conditions. The conditions noted are these: for second-order rate constant k2 for the reaction with DPPH•: ethanol, 298 K, deaerated, DPPH• 2.2 × 10^−4 M, surfactant 0.012-0.12 M. As to the method:
After confirming that the absorption maximum at 517 nm of DPPH• is outside the surfactant’s absorption range, the rate of the DPPH•-scavenging reaction of the N-oxides was measured by monitoring the decrease in absorbance of this maximum. To ensure that the decay of DPPH• obeyed pseudo-first-order kinetics, the concentration of surfactants was at least a 54-fold excess of the DPPH• concentration. As explained in SI, the calculated pseudo-first-order rate constants, kobs, increased linearly with the concentration of Cn(DAPANO)2 and CnPDA (shown in SI). The second-order rate constants k2 for the reaction between the N-oxides and DPPH• were determined from the slopes of the linear plots of kobs vs. the concentration of the surfactants and are given in Figure 6.
The measurements were done under deaerated conditions at 298 K in ethanol solutions (2 mL in a 10 mm quartz cuvette) containing DPPH^• (C = 2.2 × 10^−4 M) and a surfactant at each of five different concentrations, namely C1 = 0.12 M, C2 = 0.09 M, C3 = 0.06 M, C4 = 0.03 M, and C5 = 0.012 M. UV−vis spectral changes associated with the undergoing reaction were monitored at 516 nm, using a Varian Cary 50Conc UV−visible Spectrophotometer. The following equations of the calibration curve were used to calculate DPPH^• concentrations in the reaction system: Abs = 4.0189 × C[mM] + 0.00813 (R^2 = 0.9998). The rate of DPPH^• scavenging reaction was determined using pseudo-first-order kinetics (the concentration of CnPDA or Cn(DAPANO)2 was maintained at more than 54-fold excess of the radical concentration); further details are given as Supporting Information.

Data set [4] in a line: MTT cell viability assay, HaCaT. Format: cell-based, human. As to conditions: human, HaCaT cells (immortalized human keratinocytes), evaluated for CMC. Here is the method: (§4) HaCaT (immortalized human keratinocytes from histologically normal skin) cell line was obtained from the CLS Cell Lines Service GmbH (Eppelheim, Germany). HGFs (human gingival fibroblasts) derive from primary cell culture. The cells were isolated according to the procedure described by Saczko et al. and patented by Saczko et al.. Cells were grown in plastic cell culture flasks in Dulbecco’s Modified Eagle’s Medium, supplemented with fetal bovine serum (FBS, Lonza, Morrisville, NC, USA), with 100 IU/mL penicillin, 50 mg streptomycin, and 125 μg amphotericin B (Sigma). The cells were maintained in a humidified atmosphere at 37 °C and 5% CO2. The cells were regularly maintained by systematic passaging. For experimental purposes, the cells were removed by trypsinization (0.25% Trypsin-EDTA, Sigma).
(§5) MTT (Sigma) test was used to determine the viability of HaCaT and HGFs cells. The MTT assay was used to test mitochondrial metabolic functioning. Cells were seeded on flat bottom 96-well tissue culture plates at a density of 10^4 cells/well and allowed to grow in a CO2 incubator at 37 °C overnight. In the case of these studies, the culture medium was removed, surfactant solutions were added, and the cells were exposed for 24 and 48 h to compounds at doses ranging from 50 to 2000 μg/mL. After incubation, MTT assay was applied according to the manufacturer protocol. The absorbance was measured at 570 nm using a multiwell plate reader (EnSpire Multimode Reader, Perkin Elmer). Each experiment was performed in a few independent repetitions. Mean values and standard deviations of all results were calculated. The final results were expressed as the percentage of mitochondrial function relative to untreated control cells.

Data set [5] has as its system normal human keratinocytes (HaCaT). The data set is described as follows: MTT cell viability assay, HaCaT. The data set is classed as cell-based. As to conditions: Homo sapiens, HaCaT, MTT. As to the method:
as §4, §5
In general terms: Tetrazolium assays rely on reduction of a dye to a coloured formazan, in cell work by metabolically active cells.

Data set [6] in a line: MTT cell viability assay, HGFs. Format: cell-based, human. As to conditions: human, primary human gingival fibroblasts (HGFs), evaluated for CMC; for viability at 24 h: read-out: Viability 24 h HGF’s; for viability at 48 h: read-out: Viability 48 h HGF’s. As to the method: as §4, §5
Data set [7] has as its system primary fibroblasts (HGFs). The data set is described as follows: MTT cell viability assay, HGFs. The data set is classed as cell-based, human. The conditions noted are these: Homo sapiens, Fibroblast, MTT. Here is the method: as §4, §5
Details of data set [8]: method as in PMID 23098238. The conditions noted are these: cited from earlier work.
Details of data set [9]: method as in PMID 23098238. The conditions noted are these: cited from earlier work. This is another data set of the same source.
A short description of data set [10]: Hydrodynamic radius of micelles by dynamic light scattering (DLS). The data set is classed as physicochemical. As to conditions: 298 K, surfactant at 100 x CMC. As to the method: The hydrodynamic diameter for CnPDA was determined by the DLS method. The measurements were performed using a Nano Series Zetasizer from Malvern Instruments (UK) with a detection angle of 173°, equipped with a He−Ne laser (632.8 nm) and an ALV 5000 multibit multitau autocorrelator. Before the measurements, the samples were filtered through a filter (with a pore size of 0.2 μm) directly into the optical cell to remove any impurities. All of the DLS measurements were performed at 298 ± 0.1 K and at a surfactant concentration a hundred times higher than the critical micelle concentration (CMC). Each value was obtained as the average of three runs with at least 10 measurements. The DTS software (Nano) was used to evaluate the data.

Setting [11] is: 24 h incubation, read-out: IC50 HaCaT 24 h.
The mark [12] stands for this setting: 48 h incubation, read-out: IC50 HaCaT 48 h.
[13] abbreviates: 24 h incubation, read-out: IC50 HGFs 24 h.
The mark [14] stands for this setting: 48 h incubation, read-out: IC50 HGFs 48 h.

Converted amounts (≈) assume the structure as drawn. Read-outs that look alike come from different tables or passages of the source. Marks after values point to notes of the source that are not given here.

In general, viability refers to a read-out of living cells in per cent, often relative to untreated cells. One may read the IC50 as the concentration that inhibits the measured activity by half. On to `CCCCCCCCCCCC(=O)N(CCC[N+](C)(C)[O-])CCC[N+](C)(C)[O-]` [C12(DAPANO)2], for which the “reduced the number of GO• by” value in data set [1] is listed as 88%. In addition, in data set [2], the “reduced the number of DPPH• by” value came out at 86%. In addition, the “second-order rate constant k2 for the reaction with DPPH•” value in [3] turned out to be 0.00108 M⁻¹ s⁻¹. In addition, the “k2 higher in comparison with the CnPDA homolog” value in [3] (reaction with DPPH•) is 19%. Also, the viability at 24 h was 9.2% in data set [4] and 17.1% in [6]. Besides, the results for the viability at 48 h in data set [4] and in data set [6] were 16.4% and 10.8%, respectively. Also, the IC50 in data set [5] (setting [11]) was 95 µg/mL (≈ 237 µM); in data set [5] (setting [12]), 94 µg/mL (≈ 234 µM); in [7] (setting [13]), 27.9 µg/mL (≈ 69.5 µM); in data set [7] (setting [14]), 1.2 µg/mL (≈ 2.99 µM). The CMC in [8] is given as 5.5·10^−3 a M. Further, the “RH DLS” value in [9] is on record as 2.04 ^a nm.
For the compound `CCCCCCCCCCCC(=O)NCCC[N+](C)(C)[O-]` [C12PDA], the “RH DLS” value in data set [10] is given as 1.96 nm. Besides, the “reduced the number of GO• by” value in data set [1] stood at 59%. The “reduced the number of DPPH• by” value in [2] came to 24%. For the same compound, in data set [3], the “second-order rate constant k2 for the reaction with DPPH•” value turned out to be 0.000905 M⁻¹ s⁻¹. The viability at 24 h in [4] amounted to 89.4%; in [6] it was 55.5%. Moreover, the viability at 48 h in [4] was determined as 116%; in data set [6], 44.8%. The half-inhibitory concentration (IC50) was 31 µg/mL (≈ 103 µM) in [5] (setting [11]), 18.8 µg/mL (≈ 62.6 µM) in data set [5] (setting [12]), 51.9 µg/mL (≈ 173 µM) in [7] (setting [13]) and 49.8 µg/mL (≈ 166 µM) in data set [7] (setting [14]).
